Experimental data published in PubChem BioAssay (NCI).
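Exposure lasted 48 hours, with cells grown in 96-well plates and compounds tested at five concentrations. TGI marks complete inhibition of growth.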

Tests used:
Test in all cases: NCI tumour cell line growth inhibition, 48 h
[1] = test system: SNB-19 CNS
[2] = test system: T-47D breast
[3] = test system: SW-620 colon
[4] = test system: SK-MEL-5 melanoma
[5] = test system: SF-295 CNS
[6] = test system: HOP-92 NSCLC
[7] = test system: UO-31 renal
[8] = test system: NCI-H226 lung
[9] = test system: HL-60(TB) leukemia
[10] = test system: CAKI-1 renal
[11] = test system: IGROV1 ovarian
[12] = test system: MDA-MB-435
[13] = test system: HCT-15 colon
[14] = test system: DU-145 prostate
[15] = test system: UACC-257 melanoma
[16] = test system: COLO 205 colon
[17] = test system: EKVX NSCLC
[18] = test system: SF-268 CNS
[19] = test system: NCI-H23 lung
[20] = test system: HT29 colon
[21] = test system: MDA-N
[22] = test system: HCC-2998 colon
[23] = test system: A549 NSCLC
[24] = test system: LOX IMVI melanoma
[25] = test system: SN12C renal
[26] = test system: CCRF-CEM leukemia
[27] = test system: MALME-3M melanoma
[28] = test system: SK-MEL-2 melanoma
[29] = test system: TK-10 renal
[30] = test system: PC-3 prostate
[31] = test system: RXF 393 renal
[32] = test system: HCT-116 colon
[33] = test system: HOP-62 NSCLC
[34] = test system: MOLT-4 leukemia
[35] = test system: NCI/ADR-RES ovarian
[36] = test system: M14 melanoma
[37] = test system: U251 CNS
[38] = test system: K-562 leukemia
[39] = test system: NCI-H522 lung
[40] = test system: SK-OV-3 ovarian
[41] = test system: BT-549 breast
[42] = test system: NCI-H460 lung
[43] = test system: HS 578T breast
[44] = test system: MDA-MB-231 breast
[45] = test system: UACC-62 melanoma
[46] = test system: OVCAR-4 ovarian
[47] = test system: OVCAR-3 ovarian
[48] = test system: KM12 colon
[49] = test system: SK-MEL-28 melanoma
[50] = test system: OVCAR-8 ovarian
[51] = test system: 786-0 renal
[52] = test system: OVCAR-5 ovarian
[53] = test system: SNB-75 CNS
[54] = test system: SF-539 CNS
[55] = test system: RPMI-8226 leukemia
[56] = test system: ACHN renal
[57] = test system: A498 renal
[58] = test system: MCF7 breast
[59] = test system: SR leukemia

Measured: TGI

COc1cc(N(CCC#N)CCC#N)ccc1/C(N=Nc1ccccc1C)=N\NC(=O)c1ccc(C)cc1
23 µM: [9]
58.8 µM: [21]
40.3 µM: [26]
not listed: [53] | [54] | [55] | [56] | [57] | [58] | [59]
> 100 µM: all other assays above

COc1ccc(C2OC(N)=C(C#N)C3=C2CCCC3C)cc1OC (stereo unspecified)
not listed: [6] | [22] | [23] | [33] | [39] | [46] | [59]
> 100 µM: all other assays above

COc1ccc(CC2c3cc(OC)c(OC)cc3CC[N+]2(C)C)cc1OC (stereo unspecified)
not listed: [31] | [33] | [36] | [59]
> 100 µM: all other assays above

COc1ccc(-c2coc3c4c(ccc3c2=O)OCO4)cc1OC
82 µM: [1]
83.6 µM: [40]
not listed: [27] | [31]
> 100 µM: all other assays above
